# Data: article PMC9088392 (RSC Advances, 2022)
# Target: T1, PaER (Ogataea polymorpha, UniProt A0A1B7SQN2)
# T1 sequence (A0A1B7SQN2 1-402): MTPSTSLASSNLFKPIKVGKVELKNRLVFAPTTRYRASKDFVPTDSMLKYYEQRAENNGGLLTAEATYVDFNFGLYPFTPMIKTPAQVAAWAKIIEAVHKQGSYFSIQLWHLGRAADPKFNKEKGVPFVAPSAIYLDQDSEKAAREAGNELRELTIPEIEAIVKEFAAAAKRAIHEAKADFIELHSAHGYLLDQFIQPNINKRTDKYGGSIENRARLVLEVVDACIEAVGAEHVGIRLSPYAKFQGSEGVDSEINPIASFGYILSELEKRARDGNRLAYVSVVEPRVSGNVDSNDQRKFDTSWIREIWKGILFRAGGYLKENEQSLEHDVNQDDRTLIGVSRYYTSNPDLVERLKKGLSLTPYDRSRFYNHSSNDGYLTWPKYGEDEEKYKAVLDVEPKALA
# Test: flavin released from purified enzyme by heat, RP-HPLC
# Format: binding
# Details: non-covalent flavin co-purified with the enzyme
smiles,measurement,value
Cc1cc2nc3c(=O)[nH]c(=O)nc-3n(C[C@H](O)[C@H](O)[C@H](O)COP(=O)(O)O)c2cc1C [FMN],"flavin released from purified enzyme by heat, RP-HPLC",yellow color as expected for FMN-containing protein and was also confirmed by HPLC
